Data on 26 molecules can be found in patent US20250179059A1 (The Regents of the University of California, priority 2021, published 2025).

Assay [1] has as its system human SKM-1 acute myeloid leukemia cells. Description: SKM-1 antiproliferation cell-based assay (ATPlite). The following applies: Homo sapiens. The method in brief:
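Log-phase cells in RPMI 1640/15% FBS were seeded at 34722 cells/mL and exposed for 4 days to nine-concentration DMSO serial dilutions in triplicate. Viability was read as ATP luminescence (ATPlite 1step), and IC50 values came from variable-slope non-linear regression.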

The target in assay [2] is T1, human BRD4 bromodomain II (Homo sapiens, UniProt O60885).
T1 construct: human BRD4 bromodomain II [based on Genbank NM_058243, residues 349-460]; host or cells: E. coli
As to the kind of experiment: Bromodomain binding assay (AlphaScreen), BRD4 BDII. The method in brief:
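First, His6-tagged BRD4 bromodomain (BDI residues 44-170 or BDII residues 349-460) is incubated with compound for 30 min at room temperature. Next the biotinylated H4 peptide is added for 30 min, then donor and acceptor beads, with 60 min in the dark before AlphaScreen reading and IC50 fitting.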
A general note: In Alpha technology, singlet oxygen from a donor bead excites a nearby acceptor bead.

The mark [3] stands for this setting: SKM-1, 96 h, SKM-1 antiproliferation assay, 4 days, Table C2.
Where [4] appears, read: AlphaScreen assay, Table C2, read-out: BRD4 BDII IC50.
[5] abbreviates: SKM-1, SKM-1 antiproliferation assay.
[6] abbreviates: BRD4 BDII AlphaScreen assay, read-out: BRD4 BD2 IC50.

Where two headings read alike, the source gives them in different places.

In general, GI50 refers to the concentration at which growth is held to half of that of the control. Low values mean more potent growth inhibition, high ones less potent growth inhibition. Broadly, the IC50 is the concentration at which inhibition is half-maximal. `Cc1ccc(-c2cc(F)cc(-c3ccc(-n4ccn(C)c4=O)c(Cl)c3)c2O)cc1C(N)=O` [Example 766]: the GI50 in assay [1] (setting [3]) fell in the range of 30 to 300 nM. In addition, the IC50 in assay [2] (setting [4]) lay within 1 to 10 nM.

Take `C[C@@H]1CN(c2cc(-c3cc(F)cc(-c4ccc(-n5ccn(C)c5=O)c(Cl)c4)c3O)cn3ncnc23)CCN1` [Example 602, (R)-1-(3-chloro-5′-fluoro-2′-hydroxy-3′-(8-(3-methylpiperazin-1-yl)-[1,2,4]triazolo[1,5-a]pyridin-6-yl)-[1,1′-biphenyl]-4-yl)-3-methyl-1H-imidazol-2(3H)-one]: in assay [1] (setting [3]), the GI50 lay within 0.3 to 30 nM. Besides, the IC50 in assay [2] (setting [4]) was 0.01 to 1 nM.

As for `CC(=O)Nc1cc(-c2cccc(-c3ccc(N4CCN(C)C4=O)c(Cl)c3)c2O)cc(N2CCNCC2)n1` [Example 383, N-(4-(3′-chloro-2-hydroxy-4′-(3-methyl-2-oxoimidazolidin-1-yl)-[1,1′-biphenyl]-3-yl)-6-(piperazin-1-yl)pyridin-2-yl)acetamide], in assay [1] (setting [3]), the GI50 was in the range of 0.3 to 30 nM. Further, in assay [2] (setting [4]), the IC50 was 1 to 10 nM.

In assay [1] (setting [3]), `Cn1ccn(-c2ccc(-c3cc(F)cc(-c4ccnc(N5CCN(C(C)(C)C)CC5)c4)c3O)cc2Cl)c1=O` [Example 614, 1-(3′-(2-(4-(tert-butyl)piperazin-1-yl)pyridin-4-yl)-3-chloro-5′-fluoro-2′-hydroxy-[1,1′-biphenyl]-4-yl)-3-methyl-1H-imidazol-2(3H)-one] yielded a GI50 of 0.3 to 30 nM. Moreover, the IC50 in assay [2] (setting [4]) fell in the range of 0.01 to 1 nM.

For `COc1c(-c2cccc(N3CCN(C(C)(C)C)CC3)c2)cc(F)cc1-c1ccc(-n2ccn(C)c2=O)c(Cl)c1` [Example 859], the GI50 in assay [1] (setting [5]) was in the range of 30 to 300 nM. Further, the IC50 in assay [2] (setting [6]) was 10 to 100 nM.

Turning to `CCC1(O)CCN(c2cc(-c3cc(F)cc(-c4ccc(-n5ccn(C)c5=O)c(Cl)c4)c3O)ccn2)C1` (stereo not shown) [Example 737, 1-(3-chloro-3′-(2-(3-ethyl-3-hydroxypyrrolidin-1-yl)pyridin-4-yl)-5′-fluoro-2′-hydroxy-[1,1′-biphenyl]-4-yl)-3-methyl-1H-imidazol-2(3H)-one], the GI50 in assay [1] (setting [3]) was 0.3 to 30 nM. Moreover, the half-maximal inhibitory concentration (IC50) in assay [2] (setting [4]) lay within 0.01 to 1 nM.

As to `Cn1ccn(-c2ccc(-c3cc(F)cc(-c4ccnc(N5CC6CC6(N)C5)c4)c3O)cc2Cl)c1=O` (stereo not shown) [Example 721, 1-(3′-(2-(1-amino-3-azabicyclo[3.1.0]hexan-3-yl)pyridin-4-yl)-3-chloro-5′-fluoro-2′-hydroxy-[1,1′-biphenyl]-4-yl)-3-methyl-1H-imidazol-2(3H)-one], in assay [1] (setting [3]), the GI50 lay within 30 to 300 nM. The IC50 in assay [2] (setting [4]) was in the range of 0.01 to 1 nM.

Take `COc1ncc(-c2cc(F)cc(-c3ccc(-n4ccn(C)c4=O)c(Cl)c3)c2O)cc1N1CC(F)(F)[C@](C)(O)C1` [Example 900]: the GI50 in assay [1] (setting [5]) was 30 to 300 nM. Moreover, the IC50 in assay [2] (setting [6]) lay within 0.01 to 1 nM.

In turn, `Cn1ccn(-c2ccc(-c3cc(Cl)cc(-c4ccnc(N5CC[C@H](N)C5)c4)c3O)cc2Cl)c1=O` [Example 539, (S)-1-(3′-(2-(3-aminopyrrolidin-1-yl)pyridin-4-yl)-3,5′-dichloro-2′-hydroxy-[1,1′-biphenyl]-4-yl)-3-methyl-1H-imidazol-2(3H)-one] registered a GI50 in assay [1] (setting [3]) of 0.3 to 30 nM. For the same molecule, in assay [2] (setting [4]), the IC50 is 1 to 10 nM.

On to `Cc1cc(-c2ccc(-n3ccn(C)c3=O)c(Cl)c2)c(O)c(-c2cnnc(N3CCN(C(C)(C)C)CC3)c2)n1` [Example 1017, 1-(4-(2-(6-(4-(tert-butyl)piperazin-1-yl)pyridazin-4-yl)-3-hydroxy-6-methylpyridin-4-yl)-2-chlorophenyl)-3-methyl-1H-imidazol-2(3H)-one], for which, in assay [1] (setting [5]), the GI50 was 30 to 300 nM. The IC50 in assay [2] (setting [6]) is 1 to 10 nM.

In assay [1] (setting [5]), `COc1ncc(-c2cc(F)cc(-c3ccc(-n4ccn(C)c4=O)c(F)c3)c2O)cc1N1CCN(C(C)(C)C)CC1` [Example 939, 1-(3′-(5-(4-(tert-butyl)piperazin-1-yl)-6-methoxypyridin-3-yl)-3,5′-difluoro-2′-hydroxy-[1,1′-biphenyl]-4-yl)-3-methyl-1H-imidazol-2(3H)-one] returned a GI50 of 0.3 to 30 nM. Also, the IC50 in assay [2] (setting [6]) was 1 to 10 nM.

`Cc1cc(-c2cc(C)nc(N3CC[C@H](N)C3)c2)c(O)c(-c2ccc(-n3ccn(C)c3=O)c(Cl)c2)c1` [Example 518, (S)-1-(3′-(2-(3-aminopyrrolidin-1-yl)-6-methylpyridin-4-yl)-3-chloro-2′-hydroxy-5′-methyl-[1,1′-biphenyl]-4-yl)-3-methyl-1H-imidazol-2(3H)-one] had a GI50 in assay [1] (setting [3]) of 0.3 to 30 nM. Further, the IC50 in assay [2] (setting [4]) was in the range of 0.01 to 1 nM.

Regarding `Cn1ccn(-c2ccc(-c3cc(F)cc(-c4ccnc(N5CCS(=N)(=O)CC5)c4)c3O)cc2Cl)c1=O` [Example 915, 1-(3-chloro-5′-fluoro-2′-hydroxy-3′-(2-(1-imino-1-oxidothiomorpholino)pyridin-4-yl)-[1,1′-biphenyl]-4-yl)-3-methyl-1H-imidazol-2(3H)-one], the GI50 in assay [1] (setting [5]) was in the range of 30 to 300 nM. Besides, the IC50 in assay [2] (setting [6]) lay within 0.01 to 1 nM.

In assay [1] (setting [3]), `CC(=O)Nc1ccc(-c2cc(F)cc(-c3ccnc(N4CC5(CNC5)C4)c3)c2O)cc1Cl` [Example 298, N-(3′-(2-(2,6-diazaspiro[3.3]heptan-2-yl)pyridin-4-yl)-3-chloro-5′-fluoro-2′-hydroxy-[1,1′-biphenyl]-4-yl)acetamide] displayed a GI50 of 30 to 300 nM. Moreover, in assay [2] (setting [4]), the IC50 was in the range of 10 to 100 nM.

As to `CC(=O)NCc1ccc(-c2cccc(-c3ccc(N4CCN(C)C4=O)c(Cl)c3)c2O)cc1N1CCNCC1` [Example 320, N-((3″-chloro-2′-hydroxy-4″-(3-methyl-2-oxoimidazolidin-1-yl)-3-(piperazin-1-yl)-[1,1′:3′,1″-terphenyl]-4-yl)methyl)acetamide], the concentration for 50% growth inhibition (GI50) in assay [1] (setting [3]) lay in the range of 30 to 300 nM. The IC50 in assay [2] (setting [4]) was 1 to 10 nM.

The molecule `CN1CCN(c2ccc(-c3cc(C4CC4)cc(-c4ccnc(N5CCNCC5)c4)c3O)cc2Cl)C1=O` [Example 316, 1-(3-chloro-5′-cyclopropyl-2′-hydroxy-3′-(2-(piperazin-1-yl)pyridin-4-yl)-[1,1′-biphenyl]-4-yl)-3-methylimidazolidin-2-one] came in with a GI50 in assay [1] (setting [3]) of 300 to 3000 nM. Besides, the IC50 in assay [2] (setting [4]) lay in the range of 1 to 10 nM.

`CC1=CCN(c2ccc(-c3cc(F)cc(-c4ccnc(N5CCNCC5)c4)c3O)cc2Cl)C1=O` [Example 366, 1-(3-chloro-5′-fluoro-2′-hydroxy-3′-(2-(piperazin-1-yl)pyridin-4-yl)-[1,1′-biphenyl]-4-yl)-3-methyl-1,5-dihydro-2H-pyrrol-2-one] gave a GI50 in assay [1] (setting [3]) of 30 to 300 nM. Further, in assay [2] (setting [4]), the IC50 was 1 to 10 nM.

Take `Cn1ccn(-c2ccc(-c3cc(F)cc(-c4ccnc(N5CCOCC5)c4)c3O)cc2Cl)c1=O` [Example 615, 1-(3-chloro-5′-fluoro-2′-hydroxy-3′-(2-morpholinopyridin-4-yl)-[1,1′-biphenyl]-4-yl)-3-methyl-1H-imidazol-2(3H)-one]: in assay [1] (setting [3]), the GI50 is 30 to 300 nM. In addition, the IC50 in assay [2] (setting [4]) lay within 1 to 10 nM.

In the case of `CC(C)N1CCC2CN(c3cc(-c4cc(F)cc(-c5ccc(-n6ccn(C)c6=O)c(Cl)c5)c4O)ccn3)CC21` (stereo not shown) [Example 727, 1-(3-chloro-5′-fluoro-2′-hydroxy-3′-(2-(1-isopropylhexahydropyrrolo[3,4-b]pyrrol-5(1H)-yl)pyridin-4-yl)-[1,1′-biphenyl]-4-yl)-3-methyl-1H-imidazol-2(3H)-one], the GI50 in assay [1] (setting [3]) lay within 0.3 to 30 nM. Further, the IC50 in assay [2] (setting [4]) lay in the range of 0.01 to 1 nM.

For `CN1CCN(c2ccc(-c3cc(F)cc(-c4ccc(CO)c(N5CCNCC5)c4)c3O)cc2Cl)C1=O` [Example 358, 1-(3-chloro-5′-fluoro-2′-hydroxy-4″-(hydroxymethyl)-3″-(piperazin-1-yl)-[1,1′:3′,1″-terphenyl]-4-yl)-3-methylimidazolidin-2-one], the GI50 in assay [1] (setting [3]) was 30 to 300 nM. Also, the IC50 in assay [2] (setting [4]) is 1 to 10 nM.

Regarding `CC(=O)Nc1ccc(-c2cccc(-c3cc(C(N)=O)nc(N4CCNCC4)c3)c2O)cc1F` [Example 273, 4-(4′-acetamido-3′-fluoro-2-hydroxy-[1,1′-biphenyl]-3-yl)-6-(piperazin-1-yl)picolinamide], the GI50 in assay [1] (setting [3]) lay within 300 to 3000 nM. Besides, the IC50 in assay [2] (setting [4]) lay within 10 to 100 nM.

As to `Cn1ccn(-c2ccc(-c3cc(F)cc(-c4cccc(-c5cccc(O)c5)c4)c3O)cc2Cl)c1=O` [Example 864], the GI50 in assay [1] (setting [5]) was in the range of 300 to 3000 nM. For the same molecule, the IC50 in assay [2] (setting [6]) fell in the range of 10 to 100 nM.

In assay [1] (setting [3]), `Cc1ncc(-c2cc(F)cc(-c3ccc(-n4ccn(C)c4=O)c(Cl)c3)c2O)cc1N1CCN(C(C)C)CC1` [Example 722, 1-(3-chloro-5′-fluoro-2′-hydroxy-3′-(5-(4-isopropylpiperazin-1-yl)-6-methylpyridin-3-yl)-[1,1′-biphenyl]-4-yl)-3-methyl-1H-imidazol-2(3H)-one] came in with a GI50 of 0.3 to 30 nM. For the same molecule, in assay [2] (setting [4]), the IC50 was in the range of 0.01 to 1 nM.

On to `Cn1ccn(-c2ccc(-c3cc(F)cc(-c4ccnc(N5CCN(CCCO)CC5)c4)c3O)cc2Cl)c1=O` [Example 617, 1-(3-chloro-5′-fluoro-2′-hydroxy-3′-(2-(4-(3-hydroxypropyl)piperazin-1-yl)pyridin-4-yl)-[1,1′-biphenyl]-4-yl)-3-methyl-1H-imrdazol-2(3H)-one], for which the GI50 in assay [1] (setting [3]) lay in the range of 0.3 to 30 nM. Also, the IC50 in assay [2] (setting [4]) lay in the range of 0.01 to 1 nM.

Take `CNC1(c2cccc(-c3cc(F)cc(-c4ccc(-n5ccn(C)c5=O)c(Cl)c4)c3O)c2)CC1` [Example 799, 1-(3-chloro-5′-fluoro-2′-hydroxy-3″-(1-(methylamino)cyclopropyl)-[1,1′:3′,1″-terphenyl]-4-yl)-3-methyl-1H-imidazol-2(3H)-one]: in assay [1] (setting [3]), the GI50 is 30 to 300 nM. In addition, in assay [2] (setting [4]), the IC50 is 0.01 to 1 nM.

As for `Cn1ccn(-c2ccc(-c3cc(F)cc(-c4cc(N5CC6CCC(C5)N6)c5cn[nH]c5c4)c3O)cc2Cl)c1=O` [Example 573], the GI50 in assay [1] (setting [3]) lay within 0.3 to 30 nM. Also, the IC50 in assay [2] (setting [4]) lay in the range of 0.01 to 1 nM.
